According to patent US20230406850A1, “CRYSTALLINE FORM OF HETEROCYCLIC COMPOUND, PREPARATION METHOD THEREFOR AND APPLICATION THEREOF” (WUHAN LL SCIENCE AND TECHNOLOGY DEVELOPMENT CO., LTD., priority 2020, published 2023):
Values after ≈ are worked out from the molar mass of the structure shown. Where two headings read alike, the source gives them in different places.

Legend:
[1] = Pharmacokinetics of crystalline form III, fasting and non-fasting; format: in vivo, Beagle dog; details: for AUC(0-inf) / Cmax / MRT last / Tmax / half-life / AUC(0-t): beagle, dog, po, 100 mg/kg, 100 mg/kg po
Procedure: Beagle dog (general grade, Beijing Masi Biotechnology Co., Ltd.) was given compound A by single oral gavage to study the pharmacokinetics of the compound in plasma. The test drug (100 mg/kg dosage, 5 mL/kg administration volume) was given by gavage, and samples were collected at 10 minutes, 30 minutes, 1 hour, 2 hours, 4 hours, 6 hours, 8 hours, 10 hours, 24 hours and 48 hours after administration: peripheral venipuncture was performed, and about 1.0 mL whole blood was collected from each animal at every time point, and blood samples were collected. Within 60 minutes after blood collection, 0.2 mL of whole blood was separated into a cryopreservation tube, and deionized water was added at a ratio of 1:1, which was mixed upside down and then frozen. The remaining samples were centrifuged at 2,000 g at 2 to 8° C. for 10 min to obtain plasma samples, and the hemolysis of each sample was recorded, and the influence on detection was evaluated, and then the color of plasma was observed and recorded on the blood collection table (“−” means no hemolysis, “+” means pink supernatant and “++” means red supernatant).
The concentration of compound A in plasma was determined by LC-MS/MS method (Non-GLP). The pharmacokinetic parameters were calculated by WinNonlin (Phoenix™, version 8.1) or other similar software. If applicable plasma drug concentration-time data are available, the following pharmacokinetic parameters are calculated: CL (clearance), Vss (steady-state apparent volume of distribution), T1/2 (elimination half-life), Cmax (peak concentration), Tmax (peak time), AUC (area under the concentration-time curve), MRT (mean residence time). Pharmacokinetic data were described by descriptive statistics, such as mean, standard deviation and sample size.

[2] = Dynamic vapor sorption (DVS) hygroscopicity; format: physicochemical
Procedure: The solid was analyzed by DVS using IGA sorp dynamic vapor sorption instrument. • Temperature: 25° C. • Gas flow: 250 mL/min. • Scan cycle: 2. • Minimum test time: 30 min. • Maximum test time: 2 hours. • Waiting for balance: 98%.

[3] = Solid form change on dehydration, drying or ambient humidity (XRPD); format: physicochemical; details: heating to dehydration, then ambient humidity
Text: Combined with DSC and TGA pattern, it can be seen that the product is hydrate with about 0.34 water molecules.

[4] = Mechanical stability test (grinding and pelleting); format: physicochemical
Procedure: The mechanical stability of crystalline forms I and III were investigated by grinding and pelleting. Grinding test method: the sample to be measured was put in a mortar and grinded for 2 minutes and 5 minutes respectively, then XRPD was test, and the changes of crystalline form and crystallinity were observed. Pelleting test method: the sample was placed in the die of tablet press, kept at 40 MPa for one minute, and then the crystalline form taken out to test XRPD.

[5] = Physical and chemical stability (stability boxes, XRPD and HPLC); format: physicochemical; details: for Purity -7 days (peak area %) / XRPD: 7 days
Procedure: About 10 mg of crystalline forms I, III and V were placed in the stability boxes at 40° C./75% RH (open) and 60° C. (covered) for seven days, and some samples were taken out for XRPD and HPLC tests at 0 and 7 days, respectively, to investigate their physical and chemical stability.

[6] = Solubility in biological media SGF, FaSSIF and FeSSIF; format: physicochemical
Procedure: Compared with other crystalline forms, crystalline forms I, III and V show good solid properties, so their solubility was tested respectively.
10 mg of the sample was weighed, and then 2.0 mL of biological media buffer (i.e. the target concentration is 5 mg/mL) was added to form a suspension. The mixture was put in a constant temperature water bath shaker (37° C., 100 rpm), and sampled 500 μL at 0.5, 2 and 24 hours respectively. After filtration, the pH value and HPLC concentration of filtrate were tested respectively, and the solid sample obtained by filtration was tested by XRPD.

[7] = female, whole blood, Non-fast, blood
[8] = female, whole blood, fast, blood
[9] = male, whole blood, Non-fast, blood

COC(=O)N1CCO[C@@H](Cc2c(-c3c(F)cc(S(N)(=O)=O)cc3F)nc3cc(Cl)ccn23)C1 [Crystalline form III, methyl (S)-2-((7-chloro-2-(2,6-difluoro-4-sulfamoylphenyl)imidazo[1,2-a]pyridin-3-yl)methyl)morpholine-4-carboxylate]
blood: plasma ([1]; fasting condition, female): 521% | blood: plasma ([1]; fasting condition, male (first value)): 1452% | plasma drug concentration, male relative to female ([1]; fasting condition, plasma): about 6 times | whole blood drug concentration, male relative to female ([1]; fasting condition, whole blood): 1.9 times | AUC(0-inf) ([1]; female, plasma, Non-fast): 466 µg·h/mL | Cmax ([1]; female, plasma, Non-fast): 24000 ng/mL | MRT last ([1]; female, plasma, Non-fast): 12.6 h | Tmax ([1]; female, plasma, Non-fast): 7.33 h | half-life ([1]; female, plasma, Non-fast): 5.14 h | AUC(0-t) ([1]; female, plasma, Non-fast, plasma, female, read-out: AUC0-24 h): 378 µg·h/mL | AUC(0-t) ([1]; female, plasma, Non-fast, plasma, female, read-out: AUClast): 465 µg·h/mL | AUC(0-inf) ([1]; female, plasma, fast): 9.21 µg·h/mL | Cmax ([1]; female, plasma, fast): 1680 ng/mL | MRT last ([1]; female, plasma, fast): 8.06 h | Tmax ([1]; female, plasma, fast): 1.33 h | half-life ([1]; female, plasma, fast): 12 h | AUC(0-t) ([1]; female, plasma, fast, plasma, female, read-out: AUC0-24 h): 7.54 µg·h/mL | AUC(0-t) ([1]; female, plasma, fast, plasma, female, read-out: AUClast): 8.16 µg·h/mL | AUC(0-inf) [1, 7]: 955 µg·h/mL | Cmax [1, 7]: 23500 ng/mL | MRT last [1, 7]: 18.7 h | Tmax [1, 7]: 6 h | half-life [1, 7]: 25.1 h | AUC(0-t) ([1]; female, whole blood, Non-fast, blood, female, read-out: AUC0-24 h): 432 µg·h/mL | AUC(0-t) ([1]; female, whole blood, Non-fast, blood, female, read-out: AUClast): 675 µg·h/mL | AUC(0-inf) [1, 8]: 242 µg·h/mL | Cmax [1, 8]: 10300 ng/mL | MRT last [1, 8]: 14.1 h | Tmax [1, 8]: 1.83 h | half-life [1, 8]: 22.4 h | AUC(0-t) ([1]; female, whole blood, fast, blood, female, read-out: AUC0-24 h): 134 µg·h/mL | AUC(0-t) ([1]; female, whole blood, fast, blood, female, read-out: AUClast): 187 µg·h/mL | AUC(0-inf) ([1]; male, plasma, Non-fast): 367 µg·h/mL | Cmax ([1]; male, plasma, Non-fast): 18900 ng/mL | MRT last ([1]; male, plasma, Non-fast): 11.8 h | Tmax ([1]; male, plasma, Non-fast): 4.67 h | half-life ([1]; male, plasma, Non-fast): 5.33 h | AUC(0-t) ([1]; male, plasma, Non-fast, plasma, male, read-out: AUC0-24 h): 305 µg·h/mL | AUC(0-t) ([1]; male, plasma, Non-fast, plasma, male, read-out: AUClast): 366 µg·h/mL | AUC(0-inf) ([1]; male, plasma, fast): 40.2 µg·h/mL | Cmax ([1]; male, plasma, fast): 5700 ng/mL | MRT last ([1]; male, plasma, fast): 13.6 h | Tmax ([1]; male, plasma, fast): 9 h | AUC(0-t) ([1]; male, plasma, fast, plasma, male, read-out: AUC0-24 h): 48.8 µg·h/mL | AUC(0-t) ([1]; male, plasma, fast, plasma, male, read-out: AUClast): 81.4 µg·h/mL | AUC(0-inf) [1, 9]: 818 µg·h/mL | Cmax [1, 9]: 19000 ng/mL | MRT last [1, 9]: 18.9 h | Tmax [1, 9]: 4.67 h | half-life [1, 9]: 28.6 h | AUC(0-t) ([1]; male, whole blood, Non-fast, blood, male, read-out: AUC0-24 h): 353 µg·h/mL | AUC(0-t) ([1]; male, whole blood, Non-fast, blood, male, read-out: AUClast): 557 µg·h/mL | AUC(0-inf) ([1]; male, whole blood, fast, blood): 521 µg·h/mL | Cmax ([1]; male, whole blood, fast, blood): 14600 ng/mL | MRT last ([1]; male, whole blood, fast, blood): 19.5 h | Tmax ([1]; male, whole blood, fast, blood): 9.33 h | half-life ([1]; male, whole blood, fast, blood): 14.9 h | AUC(0-t) ([1]; male, whole blood, fast, blood, male, read-out: AUC0-24 h): 255 µg·h/mL | AUC(0-t) ([1]; male, whole blood, fast, blood, male, read-out: AUClast): 449 µg·h/mL | blood: plasma ([1]; non-fasting condition, female): 116% | blood: plasma ([1]; non-fasting condition, male (first value)): 114% | XRPD before and after the DVS test [2]: no obvious change in the XRPD | DVS pattern, behaviour in words ([2]; 25° C.): the water content changes little in a wide humidity range | crystalline form after dehydration [3]: becomes crystalline form III again | crystallinity after pelleting ([4]; 40 MPa, 1 min): decreases obviously | crystalline form and crystallinity after grinding ([4]; grinding 2 min and 5 min): no obvious change in crystalline form and crystallinity | Initial purity (Peak area %) ([5]; 0 days): 99.34 peak area % | Purity -7 days (peak area %) ([5]; 40° C./75% RH (open)): 99.35 peak area % | XRPD ([5]; 40° C./75% RH (open)): Constant | stability conclusion in words ([5]; 40° C./75% RH and 60° C., seven days): good physical and chemical stability | Purity -7 days (peak area %) ([5]; 60° C. (covered)): 99.35 peak area % | XRPD ([5]; 60° C. (covered)): Constant | XRPD of remaining solid ([6]; FaSSIF, 0.5 h): Unchanged | pH of filtrate ([6]; FaSSIF, 0.5 h): 6.4 | Solubility ([6]; FaSSIF, 0.5 h, 37° C.): 23 µg/mL (≈ 45.9 µM) | XRPD of remaining solid ([6]; FaSSIF, 2 h): Unchanged | pH of filtrate ([6]; FaSSIF, 2 h): 6.4 | Solubility ([6]; FaSSIF, 2 h, 37° C.): 25 µg/mL (≈ 49.9 µM) | XRPD of remaining solid ([6]; FaSSIF, 24 h): Unchanged | pH of filtrate ([6]; FaSSIF, 24 h): 6.4 | Solubility ([6]; FaSSIF, 24 h, 37° C.): 33 µg/mL (≈ 65.9 µM) | XRPD of remaining solid ([6]; FeSSIF, 0.5 h): Unchanged | pH of filtrate ([6]; FeSSIF, 0.5 h): 4.9 | Solubility ([6]; FeSSIF, 0.5 h, 37° C.): 74 µg/mL (≈ 148 µM) | XRPD of remaining solid ([6]; FeSSIF, 2 h): Unchanged | pH of filtrate ([6]; FeSSIF, 2 h): 4.8 | Solubility ([6]; FeSSIF, 2 h, 37° C.): 88 µg/mL (≈ 176 µM) | XRPD of remaining solid ([6]; FeSSIF, 24 h): Unchanged | pH of filtrate ([6]; FeSSIF, 24 h): 4.9 | Solubility ([6]; FeSSIF, 24 h, 37° C.): 120 µg/mL (≈ 240 µM) | solubility at 0.5 h ([6]; SGF, 37 °C, simulated gastric fluid, thermodynamic from solid, SGF, 0.5 h, 37° C., read-out: Solubility (visual observation)): > 5000 µg/mL | pH of filtrate ([6]; SGF, 0.5 h): 1.0
